Measurements as given in patent US12338219B2, “Antimalarial agents” (Merck Sharp & Dohme LLC, priority 2019, dated 2025).

System: parasites (ring stage parasites, parasite growth)
Assay: Parasite LDH growth assay (Parasite Assay), antiparasite potency
Type: cell-based
Conditions: 72 hours growth, LDH readout, Table 3
Protocol: Assessing Antiparasite Potency in a Parasite LDH Growth Assay (Parasite Assay) The parasite stock was maintained at […] in RPMI-Hepes media buffered with sodium bicarbonate and supplemented with […]. […] On the day of assay set up, a blood smear of the parasite culture was Giemsa stained and counted. The parasitemia was adjusted to 0.7% rings and the haematocrit was diluted to 2% in RPMI-Hepes media buffered with sodium bicarbonate and supplemented with 500 heat inactivated human serum and 0.5% albumax. 30 ul of diluted parasites are then added into 10 ul of media+compound in pre-prepared Greiner TC assay plates. Parasite assay plates were placed in gassed humidified boxes in single layer and allowed to incubate at 37° C. for 72 hours. After 72 hours growth, assay plates are sealed with parafilm and frozen flat, in single file at −80° C. overnight. On the following day, assay plates are allowed to thaw at room temperature for 4 hours to which an LDH assay is performed to measure parasite growth.

| SMILES | EC50 | EC50 (72 h) |
| --- | --- | --- |
| CCC1(CC)CC(=O)N(CC2C(C(=O)N[C@H]3CC(C)(C)Oc4ccccc43)C2(F)F)C(=N)N1 (single isomer, unassigned) [Example 16A] | 0.033 µM | – |
| CCC1(CC)CC(=O)N(C[C@@H]2C(C)[C@H]2C(=O)N[C@@H]2c3ccccc3CC2(C)O)C(=N)N1 (single isomer, unassigned) [Example 29B] | 0.351 µM | – |
| CC1(C)CC(=O)N([C@H](c2cccnc2)[C@@H]2C[C@H]2C(=O)NC2CC(C)(C)Oc3ccc(C(F)(F)F)cc32)C(=N)N1 (single isomer, unassigned) [Example 109B] | 0.001 µM | – |
| CCC1(CC)CC(=O)N([C@H](CCOC)[C@@H]2C[C@H]2C(=O)N[C@H]2C[C@H](C(F)(F)F)Oc3ccccc32)C(=N)N1 [Example 14] | – | 0.0009 µM |
| CC1(C)CC(=O)N([C@H](c2cncc(Cl)c2)[C@@H]2C[C@H]2C(=O)N[C@@H]2c3ccccc3OC(C)(C)[C@H]2O)C(=N)N1 [Example 59] | – | 0.0038 µM |
| CC1(C)CC(=O)N([C@@H](c2cncc(Cl)c2)[C@@H]2C[C@H]2C(=O)N[C@H]2CC(C)(C)Oc3ccccc32)C(=N)N1 [Example 58A] | – | 0.21 µM |
| CCC1(CC)CC(=O)N(C[C@@H]2C[C@H]2C(=O)N[C@H]2CC(C)(C)Oc3ccc(F)cc32)C(=N)N1 [Example 7A] | – | 0.135 µM |
| COCC[C@H]([C@@H]1C[C@H]1C(=O)NC1CC(C)(C)Oc2cc(F)ccc21)N1C(=N)NC(C)(C)CC1=O (some centres unmarked) [Example 76A] | – | 0.017 µM |
| COCC[C@H]([C@@H]1C[C@H]1C(=O)N[C@H]1CC(C)(C)Oc2cc(C)c(Cl)cc21)N1C(=N)NC(C)(C)CC1=O [Example 137B] | – | 0.0064 µM |
| CC1(C)CC(=O)N(C(c2cccnc2)[C@H]2[C@H](C(=O)N[C@H]3CC(C)(C)Oc4ccccc43)C2(C)C)C(=N)N1 (some centres unmarked) [Example 49A] | – | 0.02 µM |
| CCC1(CC)CC(=O)N([C@H](c2cccnc2)[C@H]2[C@H](C(=O)N[C@H]3CC(C)(C)Oc4ccccc43)C2(C)C)C(=N)N1 [Example 48A] | – | 0.0027 µM |
| COCC[C@H]([C@@H]1C[C@H]1C(=O)N[C@H]1CC(C)(C)Oc2cc(OC(F)(F)F)ccc21)N1C(=N)NC(C)(C)CC1=O [Example 134B] | – | 0.025 µM |
| CC[C@]1(C)CC(=O)N(C(c2cncc(F)c2)[C@@H]2C[C@H]2C(=O)N[C@@H]2c3ccccc3OC(C)(C)C2(C)O)C(=N)N1 (single isomer, unassigned) [Example 103A] | 0.029 µM | – |
| COCC[C@H]([C@@H]1C[C@H]1C(=O)NC1CC(C)(C)Oc2c(F)cccc21)N1C(=N)NC(C)(C)CC1=O (some centres unmarked) [Example 111B] | 0.015 µM | – |
| CC1(C)CC(=O)N([C@H](c2cncc(Cl)c2)[C@@H]2C[C@H]2C(=O)N[C@H]2CC(C)(C)Oc3ccccc32)C(=N)N1 [Example 58B] | – | 0.001 µM |
| COCC[C@H]([C@@H]1C[C@H]1C(=O)N[C@@H]1C[C@@H](C(F)(F)F)Oc2ccccc21)N1C(=N)NC(C)(C)CC1=O [Example 24C] | 0.12 µM | – |
| CC1(C)CC(=O)N([C@H](c2cccnc2)[C@@H]2C[C@H]2C(=O)NC2CC(C)(C)Oc3c(F)cc(F)cc32)C(=N)N1 (some centres unmarked) [Example 122A] | – | 0.0023 µM |
| CCC1(CC)CC(=O)N(CC2CC2C(=O)N[C@H]2CCOc3ccccc32)C(=N)N1 (some centres unmarked) [Example 4D] | 0.091 µM | – |
| CC[C@]1(C)CC(=O)N([C@H](CCOC)[C@@H]2C[C@H]2C(=O)N[C@H]2CC(C)(C)Oc3ccc(Cl)cc32)C(=N)N1 [Example 124] | – | 0.0008 µM |
| CC1(C)CC(=O)N(C[C@@H]2C[C@H]2C(=O)NC2CC(C)(C)Oc3ccc(OC(F)(F)F)cc32)C(=N)N1 (some centres unmarked) [Example 125A] | – | 0.231 µM |
| CC1(C)CC(=O)N([C@@H](c2ccc(C#N)cc2)[C@@H]2C[C@H]2C(=O)N[C@H]2CC(C)(C)Oc3ccccc32)C(=N)N1 [Example 45B] | – | 0.22 µM |
| CCC1(CC)CC(=O)N(C[C@H]2C[C@@H]2C(=O)N[C@@H](C)c2ccccc2)C(=N)N1 [Example 3A] | – | 0.234 µM |
| COCC[C@H]([C@@H]1C[C@H]1C(=O)N[C@H]1CC(C)(C)Oc2cc(C)c(C)cc21)N1C(=N)NC(C)(C)CC1=O [Example 138A] | – | 0.0074 µM |
